Our source for the IC50 values is BindingDB's records for patent US12378224 (Dong-A Socio Holdings Co., 2025).

Assay [1] has as its target T1, Tyrosine-protein kinase Mer/Tyrosine-protein kinase receptor UFO/Tyrosine-protein kinase receptor TYRO3 (Human, UniProt P30530+Q06418+Q12866).
T1 sequence (Q06418 whole entry): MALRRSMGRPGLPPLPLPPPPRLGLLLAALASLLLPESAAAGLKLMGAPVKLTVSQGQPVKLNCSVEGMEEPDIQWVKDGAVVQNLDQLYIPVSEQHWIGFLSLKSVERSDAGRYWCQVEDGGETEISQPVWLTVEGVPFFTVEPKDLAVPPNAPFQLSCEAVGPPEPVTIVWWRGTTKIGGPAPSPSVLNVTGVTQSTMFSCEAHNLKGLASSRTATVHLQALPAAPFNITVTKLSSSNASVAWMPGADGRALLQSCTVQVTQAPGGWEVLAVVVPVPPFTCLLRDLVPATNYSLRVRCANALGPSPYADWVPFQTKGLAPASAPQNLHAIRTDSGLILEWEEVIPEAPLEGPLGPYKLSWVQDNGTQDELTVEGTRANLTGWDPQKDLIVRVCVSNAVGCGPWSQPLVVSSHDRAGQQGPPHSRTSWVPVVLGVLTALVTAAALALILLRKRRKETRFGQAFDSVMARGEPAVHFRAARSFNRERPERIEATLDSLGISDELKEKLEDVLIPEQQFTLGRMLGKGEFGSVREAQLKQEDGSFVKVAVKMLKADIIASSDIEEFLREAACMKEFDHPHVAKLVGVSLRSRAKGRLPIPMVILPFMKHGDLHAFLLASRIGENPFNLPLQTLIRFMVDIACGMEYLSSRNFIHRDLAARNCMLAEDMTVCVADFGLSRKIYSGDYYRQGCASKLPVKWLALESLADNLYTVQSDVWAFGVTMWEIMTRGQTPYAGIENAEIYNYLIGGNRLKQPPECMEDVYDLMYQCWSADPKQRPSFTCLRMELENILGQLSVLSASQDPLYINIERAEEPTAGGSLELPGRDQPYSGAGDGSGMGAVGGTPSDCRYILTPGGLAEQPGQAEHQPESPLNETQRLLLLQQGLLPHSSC
T1 sequence (P30530 whole entry): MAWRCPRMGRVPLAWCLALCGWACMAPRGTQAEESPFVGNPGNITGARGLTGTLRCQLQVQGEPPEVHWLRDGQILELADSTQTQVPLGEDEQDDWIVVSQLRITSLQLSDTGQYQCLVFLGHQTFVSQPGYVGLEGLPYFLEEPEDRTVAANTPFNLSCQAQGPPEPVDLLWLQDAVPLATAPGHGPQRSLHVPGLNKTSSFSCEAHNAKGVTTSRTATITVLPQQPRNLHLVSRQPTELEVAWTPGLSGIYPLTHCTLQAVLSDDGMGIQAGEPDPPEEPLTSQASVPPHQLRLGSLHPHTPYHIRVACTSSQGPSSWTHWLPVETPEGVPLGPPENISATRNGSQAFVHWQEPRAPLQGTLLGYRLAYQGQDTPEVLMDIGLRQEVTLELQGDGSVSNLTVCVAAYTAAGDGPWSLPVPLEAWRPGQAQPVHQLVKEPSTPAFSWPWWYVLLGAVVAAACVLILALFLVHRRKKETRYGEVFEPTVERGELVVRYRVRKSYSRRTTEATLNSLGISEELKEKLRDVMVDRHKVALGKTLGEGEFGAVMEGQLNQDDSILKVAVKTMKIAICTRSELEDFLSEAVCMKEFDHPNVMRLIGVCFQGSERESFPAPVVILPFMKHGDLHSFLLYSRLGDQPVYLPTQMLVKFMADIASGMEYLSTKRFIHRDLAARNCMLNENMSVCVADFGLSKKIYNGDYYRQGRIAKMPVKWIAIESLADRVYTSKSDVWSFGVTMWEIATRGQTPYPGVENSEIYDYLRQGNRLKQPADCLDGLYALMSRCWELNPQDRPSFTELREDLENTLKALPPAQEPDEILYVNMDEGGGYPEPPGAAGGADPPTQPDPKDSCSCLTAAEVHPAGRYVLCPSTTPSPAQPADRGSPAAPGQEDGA
T1 sequence (Q12866 whole entry): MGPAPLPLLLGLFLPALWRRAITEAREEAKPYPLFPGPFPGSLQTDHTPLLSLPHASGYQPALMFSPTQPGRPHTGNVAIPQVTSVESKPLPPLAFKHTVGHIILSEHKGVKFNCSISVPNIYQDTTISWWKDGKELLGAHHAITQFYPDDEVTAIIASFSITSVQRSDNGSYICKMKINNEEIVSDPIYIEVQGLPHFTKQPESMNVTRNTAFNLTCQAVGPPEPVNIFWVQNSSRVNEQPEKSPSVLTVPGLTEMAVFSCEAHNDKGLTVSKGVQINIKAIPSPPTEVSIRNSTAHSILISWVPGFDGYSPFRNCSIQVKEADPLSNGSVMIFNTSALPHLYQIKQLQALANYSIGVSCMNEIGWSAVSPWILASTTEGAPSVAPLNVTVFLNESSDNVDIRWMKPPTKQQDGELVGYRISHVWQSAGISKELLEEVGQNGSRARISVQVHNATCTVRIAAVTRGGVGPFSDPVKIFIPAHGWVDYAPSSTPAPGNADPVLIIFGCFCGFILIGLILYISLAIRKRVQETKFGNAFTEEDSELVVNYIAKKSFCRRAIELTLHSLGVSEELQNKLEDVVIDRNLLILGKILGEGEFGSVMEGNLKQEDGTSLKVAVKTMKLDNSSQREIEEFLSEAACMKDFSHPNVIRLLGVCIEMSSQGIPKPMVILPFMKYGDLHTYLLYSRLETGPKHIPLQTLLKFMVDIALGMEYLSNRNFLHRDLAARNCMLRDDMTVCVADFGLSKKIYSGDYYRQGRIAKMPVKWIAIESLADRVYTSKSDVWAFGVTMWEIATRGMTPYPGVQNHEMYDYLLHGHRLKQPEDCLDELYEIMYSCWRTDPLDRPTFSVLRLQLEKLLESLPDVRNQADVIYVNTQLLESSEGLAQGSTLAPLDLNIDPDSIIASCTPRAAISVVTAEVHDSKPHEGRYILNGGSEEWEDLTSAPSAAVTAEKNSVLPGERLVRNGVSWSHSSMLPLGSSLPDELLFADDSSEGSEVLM
Kind of assay: HTRF Kinase Activity Biochemical Assay. Here is the method:
Table 3: For the SAR (structure-activity relationship) and compound screening, HTRF (Homogeneous Time Resolved Fluorescence) kinase activity assay was employed for all MER, AXL and TYRO3 kinases using Cisbio HTRF KinEASE™-TK kit (Cisbio, USA). The kit includes biotin-labeled TK substrate, streptavidin-XL665, Eu3+-cryptate-labeled TK antibody and HTRF Detection buffer. There are two main steps in the kinase assay: kinase reaction and detection of phosphorylated substrate. The reaction was carried out in white low volume 384-well plate (Corning, USA) with 25 nL compound in dimethyl sulfoxide in each well. […] Then the reaction was stopped after 1 hour incubation at room temperature by adding 5 uL of HTRF Detection buffer which also contains 0.375 nM Eu3+-cryptate-labeled TK antibody and 0.062 uM streptavidin-XL665(SA-XL665) to allow for detection of the phosphorylated peptide product. After 1 h incubation at room temperature, the fluorescence intensity was measured with Envision™ plate reader (PerkinElmer, USA). Upon excitation at 340 nm by UV, the energy from Eu3+ donor of the antibody is transferred to the FRET acceptor XL665, and […] emits light at 665 nm. The level of kinase activity was quantified by the HTRF ratio that calculated from the intensity of emission at 665 nm and emission at 620 nm (fluorescence intensity @ 665 nm/fluorescence intensity @ 620 nm×10,000). The recombinant protein of human MER (528-end) was purchased from Carnabio, Japan. The recombinant human AXL (473-end) and TYRO3 (455-end) were purchased from SignalChem, Canada.

Assay [2] concerns the target T2, Tyrosine-protein kinase Mer/Tyrosine-protein kinase UFO (Human, UniProt P30530+Q12866).
T2 sequence (P30530 whole entry): T1 sequence (P30530 whole entry)
T2 sequence (Q12866 whole entry): T1 sequence (Q12866 whole entry)
Kind of assay: TR-FRET Kinase Activity Biochemical Assay. The text has this: Table 2: For the SAR (structure-activity relationship) and compound screening, LanthaScreen™ TR-FRET (Time-Resolved fluorescence energy transfer) assay was employed using the phospho-tyrosine specific Terbium (Tb)-labelded antibody with a fluorescein labeled poly-GT (glutamate-tyrosine) as a substrate. Upon excitation at 340 nm by UV, the energy from Tb donor of the antibody is transferred to the fluorescein of the phosphorylated poly GT substrate, and fluorescein emits light at 520 nm. The ratio between the intensity of primary emission at 495 nm and that of secondary emission at 520 nm was used to quantify the level of kinase activity. The recombinant proteins of human c-MER and AXL catalytic domains, Fluorescein-labeled poly-GT substrate, Tb-labeled anti-phosphorylated tyrosine antibodies, the kinase assay buffer, and 0.5M EDTA solution were purchased (Life technologies, USA). The TR-FRET assays were carried out in the white low volume 384-well plate (Corning, USA). […] 10 mM EDTA was added to terminate the enzyme reaction, and the level of phosphorylation of poly-GT substrate was determined following 30 min incubation with 2 nM Tb-labeled antibody. The fluorescence intensity was measured with Envision™ plate reader (PerkinElmer, USA).
(In general: TR-FRET usually uses a lanthanide donor and a delayed reading to cut background.)

Some results are limits rather than exact numbers.

In assay [1], `Cn1cc(-c2cnc(N)c(C(=O)N[C@@H]3CCN(C(=O)Nc4ccc(C#N)cc4)C3)c2)cn1` [US12378224, Example 7] gave an IC50 greater than 1000 nM.

With `Cn1cc(-c2cnc(N)c(C(=O)N[C@@H]3CCN(C(=O)c4ccc(-c5cccc(Cl)c5Cl)cc4)C3)c2)cn1` [US12378224, Example 369], the IC50 in assay [2] was less than 10 nM.

Regarding `CN1CCN(Cc2ccc(-c3cnc(N)c(C(=O)N[C@@H]4CCN(C(=O)c5ccc(-c6ccccc6Cl)cc5)C4)c3)cc2)CC1` [US12378224, Example 572], in assay [2], the IC50 was less than 10 nM.

On to `Nc1ncc(-c2ccc(S(=O)(=O)N3CCC3)cc2)cc1C(=O)N[C@@H]1CCN(C(=O)c2ccc(-c3ccccc3Cl)cc2)C1` [US12378224, Example 574], for which the IC50 in assay [1] is greater than 1000 nM.

`Nc1ncc(-c2ccnc(N3CCNCC3)c2)cc1C(=O)N[C@@H]1CCN(C(=O)c2ccc(-c3ccc(F)cc3Cl)cc2)C1` [US12378224, Example 581]: in assay [1], the IC50 was less than 10 nM.

As to `CN1CCN(c2ccc(-c3cnc(N)c(C(=O)N[C@@H]4CCN(C(=O)c5ccc(-c6ccc(F)cc6Cl)cc5)C4)c3)cc2)CC1` [US12378224, Example 585], the IC50 in assay [1] is less than 10 nM.

Regarding `CN1CCC(NC(=O)c2ccc(-c3cnc(N)c(C(=O)N[C@@H]4CCN(C(=O)c5ccc(-c6ccccc6Cl)cc5)C4)c3)cc2)CC1` [US12378224, Example 591], the IC50 in assay [1] was less than 10 nM.

Compound `CC1CCC(NC(=O)c2ccc(-c3cnc(N)c(C(=O)N[C@@H]4CCN(C(=O)c5ccc(-c6ccccc6Cl)cc5)C4)c3)cc2)CC1` (some centres undefined) [US12378224, Example 592] returned an IC50 in assay [1] greater than 1000 nM.

In the case of `CN1CCC(CNC(=O)c2ccc(-c3cnc(N)c(C(=O)N[C@@H]4CCN(C(=O)c5ccc(-c6ccccc6Cl)cc5)C4)c3)cc2)C1` (some centres undefined) [US12378224, Example 594], the IC50 in assay [2] was less than 10 nM.

What is called IC50 is the point on the concentration scale where inhibition reaches its midpoint. Lower therefore signals greater potency.
